In ChEMBL document CHEMBL1201861, “Genomics of Drug Sensitity in Cancer screening data, Wellcome Trust Sanger Institute”:

Tests used:
Format in all cases: functional, cell-based
HSC-2 = assay: cells; details: Homo sapiens;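 further: growth inhibition of human HSC-2 cells, read out by a cell viability assay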
Description: SANGER: Inhibition of human HSC-2 cell growth in a cell viability assay.

SW1088 = assay: cells; details: Homo sapiens;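 further: growth inhibition of human SW1088 cells, read out by a cell viability assay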
Description: SANGER: Inhibition of human SW1088 cell growth in a cell viability assay.

ACHN = assay: cells; details: Homo sapiens;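 further: cell viability read-out used to gauge how strongly growth of human ACHN cells is suppressed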
Description: SANGER: Inhibition of human ACHN cell growth in a cell viability assay.

BFTC-905 = assay: cells; details: Homo sapiens
Description: SANGER: Inhibition of human BFTC-905 cell growth in a cell viability assay.

BEN = assay: cells; details: Homo sapiens;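 further: growth inhibition of the BEN cell line, read out with a cell viability assay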
Description: SANGER: Inhibition of human BEN cell growth in a cell viability assay.

A2058 = assay: cells; details: Homo sapiens;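 further: reduction of A2058 cell growth, read out with a viability assay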
Description: SANGER: Inhibition of human A2058 cell growth in a cell viability assay.

IM-9 = assay: SANGER: Inhibition of human IM-9 cell growth in a cell viability assay.
NCI-H719 = assay: cells; details: Homo sapiens;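 further: growth inhibition of the cultured cell line, read out with a viability assay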
Description: SANGER: Inhibition of human NCI-H719 cell growth in a cell viability assay.

COLO-680N = assay: cells; details: Homo sapiens;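 further: cell viability assay used to measure inhibition of COLO-680N cell growth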
Description: SANGER: Inhibition of human COLO-680N cell growth in a cell viability assay.

HO-1-N-1 = assay: cells; details: Homo sapiens;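 further: growth inhibition of human HO-1-N-1 cells, read out with a cell viability assay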
Description: SANGER: Inhibition of human HO-1-N-1 cell growth in a cell viability assay.

SiHa = assay: cells; details: Homo sapiens;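 further: Viability-based readout of growth inhibition in SiHa cells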
Description: SANGER: Inhibition of human SiHa cell growth in a cell viability assay.

G-401 = assay: cells; details: Homo sapiens
Description: SANGER: Inhibition of human G-401 cell growth in a cell viability assay.

SCC-4 = assay: cells; details: Homo sapiens;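 further: growth inhibition of human SCC-4 cells, read out as cell viability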
Description: SANGER: Inhibition of human SCC-4 cell growth in a cell viability assay.

NCI-H1623 = assay: cells; details: Homo sapiens;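 further: cell viability assay used as the read-out for growth inhibition of NCI-H1623 cells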
Description: SANGER: Inhibition of human NCI-H1623 cell growth in a cell viability assay.

SK-MEL-30 = assay: cells; details: Homo sapiens;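 further: growth inhibition of SK-MEL-30 cells, determined with a cell viability assay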
Description: SANGER: Inhibition of human SK-MEL-30 cell growth in a cell viability assay.

SW948 = assay: cells; details: Homo sapiens;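 further: growth inhibition of SW948 cells, read out with a cell viability assay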
Description: SANGER: Inhibition of human SW948 cell growth in a cell viability assay.

SK-N-AS = assay: cells; details: Homo sapiens;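 further: growth inhibition of human SK-N-AS cells, measured with a cell viability assay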
Description: SANGER: Inhibition of human SK-N-AS cell growth in a cell viability assay.

NY = assay: cells; details: Homo sapiens
Description: SANGER: Inhibition of human NY cell growth in a cell viability assay.

HT-1376 = assay: cells; details: Homo sapiens
Description: SANGER: Inhibition of human HT-1376 cell growth in a cell viability assay.

DoTc2-4510 = assay: cells; details: Homo sapiens
HCC1569 = assay: cells; details: Homo sapiens;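 further: growth inhibition of human HCC1569 cells, read out with a cell viability assay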
Description: SANGER: Inhibition of human HCC1569 cell growth in a cell viability assay.

SF-295 = assay: cells; details: Homo sapiens;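 further: growth inhibition of SF-295 cells, read out with a cell viability assay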
Description: SANGER: Inhibition of human SF295 cell growth in a cell viability assay.

UACC-812 = assay: cells; details: Homo sapiens
Description: SANGER: Inhibition of human UACC-812 cell growth in a cell viability assay.

SW1783 = assay: cells; details: Homo sapiens
Description: SANGER: Inhibition of human SW1783 cell growth in a cell viability assay.

UACC-893 = assay: cells; details: Homo sapiens
Description: SANGER: Inhibition of human UACC-893 cell growth in a cell viability assay.

769-P = assay: cells; details: Homo sapiens
Description: SANGER: Inhibition of human 769-P cell growth in a cell viability assay.

SR = assay: cells; details: Homo sapiens
Description: SANGER: Inhibition of human SR cell growth in a cell viability assay.

WSU-NHL = assay: cells; details: Homo sapiens;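 further: growth inhibition of human WSU-NHL cells, read out with a cell viability assay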
Description: SANGER: Inhibition of human WSU-NHL cell growth in a cell viability assay.

BT-20 = assay: cells; details: Homo sapiens;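 further: cell viability assay measuring suppression of growth in human BT-20 cells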
Description: SANGER: Inhibition of human BT-20 cell growth in a cell viability assay.

NCI-H2170 = assay: cells; details: Homo sapiens;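 further: cell viability assay measuring growth inhibition of human NCI-H2170 cancer cells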
Description: SANGER: Inhibition of human NCI-H2170 cell growth in a cell viability assay.

HCT-15 = assay: cells; details: Homo sapiens;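 further: cell viability readout, IC50 reflecting suppression of HCT-15 cell growth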
Description: SANGER: Inhibition of human HCT-15 cell growth in a cell viability assay.

NCI-H596 = assay: cells; details: Homo sapiens;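 further: growth inhibition of NCI-H596 cells, read out with a cell viability assay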
Description: SANGER: Inhibition of human NCI-H596 cell growth in a cell viability assay.

FaDu = assay: cells; details: Homo sapiens;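 further: cell viability readout of growth inhibition in FaDu cells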
Description: SANGER: Inhibition of human FADU cell growth in a cell viability assay.

HSC-3 = assay: cells; details: Homo sapiens
Description: SANGER: Inhibition of human HSC-3 cell growth in a cell viability assay.

SCLC-21H = assay: cells; details: Homo sapiens;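 further: growth inhibition of cultured human SCLC-21H cells, read out with a cell viability assay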
Description: SANGER: Inhibition of human SCLC-21H cell growth in a cell viability assay.

RPMI-6666 = assay: cells; details: Homo sapiens
Description: SANGER: Inhibition of human RPMI-6666 cell growth in a cell viability assay.

Calu-3 = assay: cells; details: Homo sapiens;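 further: growth inhibition of human Calu-3 cells, determined with a cell viability assay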
Description: SANGER: Inhibition of human Calu-3 cell growth in a cell viability assay.

U-118-MG = assay: cells; details: Homo sapiens
Description: SANGER: Inhibition of human U-118-MG cell growth in a cell viability assay.

HCC2157 = assay: cells; details: Homo sapiens;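 further: growth inhibition of the cancer cell line, read out as cell viability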
Description: SANGER: Inhibition of human HCC2157 cell growth in a cell viability assay.

8305C = assay: cells; details: Homo sapiens
Description: SANGER: Inhibition of human 8305C cell growth in a cell viability assay.

NCI-H1882 = assay: cells; details: Homo sapiens;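 further: growth inhibition of the cell line, determined with a viability assay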
Description: SANGER: Inhibition of human NCI-H1882 cell growth in a cell viability assay.

NCI-H28 = assay: cells; details: Homo sapiens;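 further: growth inhibition of human NCI-H28 cells, read out as cell viability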
Description: SANGER: Inhibition of human NCI-H28 cell growth in a cell viability assay.

MDA-MB-361 = assay: cells; details: Homo sapiens
CaR-1 = assay: cells; details: Homo sapiens;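 further: growth inhibition of human CaR-1 cancer cells, read out with a cell viability assay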
Description: SANGER: Inhibition of human CaR-1 cell growth in a cell viability assay.

SN12C = assay: cells; details: Homo sapiens;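 further: growth inhibition of human SN12C cells, measured by a cell viability assay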
Description: SANGER: Inhibition of human SN12C cell growth in a cell viability assay.

CAPAN-1 = assay: cells; details: Homo sapiens;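 further: growth suppression of CAPAN-1 cells, read out by a cell viability assay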
Description: SANGER: Inhibition of human CAPAN-1 cell growth in a cell viability assay.

NCI-H358 = assay: cells; details: Homo sapiens;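 further: growth inhibition of NCI-H358 human cells, read out with a cell viability assay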
Description: SANGER: Inhibition of human NCI-H358 cell growth in a cell viability assay.

SW13 = assay: cells; details: Homo sapiens;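 further: IC50 is inhibition of SW13 cell growth, read out with a cell viability assay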
Description: SANGER: Inhibition of human SW13 cell growth in a cell viability assay.

VMRC-RCZ = assay: cells; details: Homo sapiens
Description: SANGER: Inhibition of human VMRC-RCZ cell growth in a cell viability assay.

SCC-9 = assay: cells; details: Homo sapiens;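 further: Read-out is a cell viability assay, with values giving inhibition of cell growth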
Description: SANGER: Inhibition of human SCC-9 cell growth in a cell viability assay.

23132-87 = assay: cells; details: Homo sapiens
Description: SANGER: Inhibition of human 23132-87 cell growth in a cell viability assay.

SW1990 = assay: cells; details: Homo sapiens
Description: SANGER: Inhibition of human SW1990 cell growth in a cell viability assay.

639-V = assay: cells; details: Homo sapiens;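 further: growth inhibition of 639-V cells, read out with a cell viability assay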
Description: SANGER: Inhibition of human 639-V cell growth in a cell viability assay.

Capan-2 = assay: cells; details: Homo sapiens;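 further: Capan-2 cell growth inhibition, read out with a viability assay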
Description: SANGER: Inhibition of human Capan-2 cell growth in a cell viability assay.

LC4-1 = assay: cells; details: Homo sapiens;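 further: growth inhibition of LC4-1 cells, read out with a cell viability assay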
Description: SANGER: Inhibition of human LC4-1 cell growth in a cell viability assay.

5637 = assay: cells; details: Homo sapiens
Description: SANGER: Inhibition of human 5637 cell growth in a cell viability assay.

D-392MG = assay: cells; details: Homo sapiens
MFE-280 = assay: cells; details: Homo sapiens;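 further: growth inhibition of MFE-280 cells, determined with a cell viability readout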
Description: SANGER: Inhibition of human MFE-280 cell growth in a cell viability assay.

UMC-11 = assay: cells; details: Homo sapiens;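 further: growth inhibition of UMC-11 cells, read out with a cell viability assay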
Description: SANGER: Inhibition of human UMC-11 cell growth in a cell viability assay.

MDA-MB-415 = assay: cells; details: Homo sapiens
NCI-H1793 = assay: cells; details: Homo sapiens;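 further: cell growth inhibition, read out by a cell viability assay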
Description: SANGER: Inhibition of human NCI-H1793 cell growth in a cell viability assay.

SK-OV-3 = assay: cells; details: Homo sapiens;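 further: growth inhibition of SK-OV-3 human cells, read out with a cell viability assay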
Description: SANGER: Inhibition of human SK-OV-3 cell growth in a cell viability assay.

NB12 = assay: cells; details: Homo sapiens;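 further: growth inhibition of human NB12 cells, read out by a cell viability assay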
Description: SANGER: Inhibition of human NB12 cell growth in a cell viability assay.

C/C(O)=C(\C#N)C(=O)Nc1cc(Br)ccc1Br
IC50 (HSC-2): > 16 µM
IC50 (SW1088): > 16 µM
IC50 (ACHN): > 16 µM
IC50 (BFTC-905): > 16 µM
IC50 (BEN): > 16 µM
IC50 (A2058): > 16 µM
IC50 (IM-9): > 16 µM
IC50 (NCI-H719): > 16 µM
IC50 (COLO-680N): > 16 µM
IC50 (HO-1-N-1): > 16 µM
IC50 (SiHa): > 16 µM
IC50 (G-401): > 16 µM
IC50 (SCC-4): > 16 µM
IC50 (NCI-H1623): > 16 µM
IC50 (SK-MEL-30): > 16 µM
IC50 (SW948): > 16 µM
IC50 (SK-N-AS): > 16 µM
IC50 (NY): > 16 µM
IC50 (HT-1376): > 16 µM
IC50 (DoTc2-4510): > 16 µM
IC50 (HCC1569): > 16 µM
IC50 (SF-295): > 16 µM
IC50 (UACC-812): > 16 µM
IC50 (SW1783): > 16 µM
IC50 (UACC-893): > 16 µM
IC50 (769-P): > 16 µM
IC50 (SR): > 16 µM
IC50 (WSU-NHL): > 16 µM
IC50 (BT-20): > 16 µM
IC50 (NCI-H2170): > 16 µM
IC50 (HCT-15): > 16 µM
IC50 (NCI-H596): > 16 µM
IC50 (FaDu): > 16 µM
IC50 (HSC-3): > 16 µM
IC50 (SCLC-21H): > 16 µM
IC50 (RPMI-6666): > 16 µM
IC50 (Calu-3): > 16 µM
IC50 (U-118-MG): > 16 µM
IC50 (HCC2157): > 16 µM
IC50 (8305C): > 16 µM
IC50 (NCI-H1882): > 16 µM
IC50 (NCI-H28): > 16 µM
IC50 (MDA-MB-361): > 16 µM
IC50 (CaR-1): > 16 µM
IC50 (SN12C): > 16 µM
IC50 (CAPAN-1): > 16 µM
IC50 (NCI-H358): > 16 µM
IC50 (SW13): > 16 µM
IC50 (VMRC-RCZ): > 16 µM
IC50 (SCC-9): > 16 µM
IC50 (23132-87): > 16 µM
IC50 (SW1990): > 16 µM
IC50 (639-V): > 16 µM
IC50 (Capan-2): > 16 µM
IC50 (LC4-1): > 16 µM
IC50 5637: > 16 µM
IC50 (D-392MG): > 16 µM
IC50 (MFE-280): > 16 µM
IC50 (UMC-11): > 16 µM
IC50 (MDA-MB-415): > 16 µM
IC50 (NCI-H1793): > 16 µM
IC50 (SK-OV-3): > 16 µM
IC50 (NB12): > 16 µM

CC(O)(CS(=O)(=O)c1ccc(F)cc1)C(=O)Nc1ccc(C#N)c(C(F)(F)F)c1 (stereo unspecified) [BICALUTAMIDE]
IC50 (HSC-2): > 1.02 µM
IC50 (SW1088): > 1.02 µM
IC50 (ACHN): > 1.02 µM
IC50 (BFTC-905): > 1.02 µM
IC50 (BEN): > 1.02 µM
IC50 (A2058): > 1.02 µM
IC50 (IM-9): > 1.02 µM
IC50 (NCI-H719): > 1.02 µM
IC50 (COLO-680N): > 1.02 µM
IC50 (HO-1-N-1): > 1.02 µM
IC50 (SiHa): > 1.02 µM
IC50 (G-401): > 1.02 µM
IC50 (SCC-4): > 1.02 µM
IC50 (NCI-H1623): > 1.02 µM
IC50 (SK-MEL-30): > 1.02 µM
IC50 (SW948): > 1.02 µM
IC50 (SK-N-AS): > 1.02 µM
IC50 (NY): > 1.02 µM
IC50 (HT-1376): > 1.02 µM
IC50 (DoTc2-4510): > 1.02 µM
IC50 (HCC1569): > 1.02 µM
IC50 (SF-295): > 1.02 µM
IC50 (UACC-812): > 1.02 µM
IC50 (SW1783): > 1.02 µM
IC50 (UACC-893): > 1.02 µM
IC50 (769-P): > 1.02 µM
IC50 (SR): > 1.02 µM
IC50 (WSU-NHL): > 1.02 µM
IC50 (BT-20): > 1.02 µM
IC50 (NCI-H2170): > 1.02 µM
IC50 (HCT-15): > 1.02 µM
IC50 (NCI-H596): > 1.02 µM
IC50 (FaDu): > 1.02 µM
IC50 (HSC-3): > 1.02 µM
IC50 (SCLC-21H): > 1.02 µM
IC50 (RPMI-6666): > 1.02 µM
IC50 (Calu-3): > 1.02 µM
IC50 (U-118-MG): > 1.02 µM
IC50 (HCC2157): > 1.02 µM
IC50 (8305C): > 1.02 µM
IC50 (NCI-H1882): > 1.02 µM
IC50 (NCI-H28): > 1.02 µM
IC50 (MDA-MB-361): > 1.02 µM
IC50 (CaR-1): > 1.02 µM
IC50 (SN12C): > 1.02 µM
IC50 (CAPAN-1): > 1.02 µM
IC50 (NCI-H358): > 1.02 µM
IC50 (SW13): > 1.02 µM
IC50 (VMRC-RCZ): > 1.02 µM
IC50 (SCC-9): > 1.02 µM
IC50 (23132-87): > 1.02 µM
IC50 (SW1990): > 1.02 µM
IC50 (639-V): > 1.02 µM
IC50 (Capan-2): > 1.02 µM
IC50 (LC4-1): > 1.02 µM
IC50 5637: > 1.02 µM
IC50 (D-392MG): > 1.02 µM
IC50 (MFE-280): > 1.02 µM
IC50 (UMC-11): > 1.02 µM
IC50 (MDA-MB-415): > 1.02 µM
IC50 (NCI-H1793): > 1.02 µM
IC50 (SK-OV-3): > 1.02 µM
IC50 (NB12): > 1.02 µM
